Experimental data published in patent US20090291938A1 (TAKEDA PHARMACEUTICAL COMPANY LIMITED, priority 2007, published 2009).

tested on: HT29 human colorectal adenocarcinoma cell line; assay: cell proliferation assay (Cell Titer-Glo luminescent cell viability assay); type: cell-based; conditions: HT-29, 72 h, read-out: pIC50 (converted)
Procedure, shortened: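 Cells grown in DMEM with 10% FBS and exposed to compounds for 72 h. Viability read by CellTiter-Glo luminescence, expressed as percentage of DMSO-treated cells.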

With `CCC1(C)CN(C2CCCC2)c2nc(Nc3ccc(C(=O)NC4CCN(C)CC4)cc3OC)ncc2N(C)C1=O` (centres unmarked) [Compound 131, 4-(9-Cyclopentyl-7-ethyl-5,7-dimethyl-6-oxo-6,7,8,9-tetrahydro-5H-pyrimido[4,5-b][1,4]diazepin-2-ylamino)-3-methoxy-N-(1-methylpiperidin-4-yl)benzamide] the IC50 was 3.16 to 10 nM.

same assay, conditions: HT-29, cell proliferative assay, HT29 cells, 72 hr treatment, values given as ranges, read-out: pIC50 (converted)

First: COc1cc(C(=O)NCC2CCN(C)CC2)ccc1Nc1ncc2c(n1)N(C1CCCC1)CC(C)(C)C(=O)N2C [Compound 88]
Second: COc1cc(C(=O)NN2CCN(C)CC2)ccc1Nc1ncc2c(n1)N(C1CCCC1)CC(C)(C)C(=O)N2C [Compound 106, 4-(9-cyclopentyl-5,7,7-trimethyl-6-oxo-6,7,8,9-tetrahydro-5H-pyrimido[4,5-b][1,4]diazepin-2-ylamino)-3-methoxy-N-(4-methylpiperazin-1-yl)benzamide]
The IC50 of the first is higher: over 10 nM for the first, under 1 nM for the second.

`C=CCC1CN(C2CCCCC2)c2nc(Nc3ccc(C(=O)N[C@@H]4CCCNC4)cc3OC)ncc2N(C)C1=O` (stereo partly drawn) [Compound 191, 4-(7-allyl-9-cyclohexyl-5-methyl-6-oxo-6,7,8,9-tetrahydro-5H-pyrimido[4,5-b][1,4]diazepin-2-ylamino)-3-methoxy-N-((R)-piperidin-3-yl)benzamide] and `C=CC[C@H]1CN(C2CCCC2)c2nc(Nc3ccc(C(=O)NC4CCNCC4)cc3OC)ncc2N(C)C1=O` [Compound 207, (S)-4-(7-allyl-9-cyclopentyl-5-methyl-6-oxo-6,7,8,9-tetrahydro-5H-pyrimido[4,5-b][1,4]diazepin-2-ylamino)-3-methoxy-N-(piperidin-4-yl)benzamide] fall in the same range of IC50: 3.16 to 10 nM for the first, 3.16 to 10 nM for the second.

First: CC[C@]1(C)CN(C2CCCCC2)c2nc(Nc3ccc(C(=O)NC4CN(C)C4)cc3OC)ncc2N(C)C1=O [Compound 145, (R)-4-(9-cyclohexyl-7-ethyl-5,7-dimethyl-6-oxo-6,7,8,9-tetrahydro-5H-pyrimido[4,5-b][1,4]diazepin-2-ylamino)-3-methoxy-N-(1-methylazetidin-3-yl)benzamide]
Second: CCN1CCC(NC(=O)c2ccc(Nc3ncc4c(n3)N(C3CCCC3)CC(C)(C)C(=O)N4C)c(OC)c2)CC1 [Compound 87, 4-(9-cyclopentyl-5,7,7-trimethyl-6-oxo-6,7,8,9-tetrahydro-5H-pyrimido[4,5-b][1,4]diazepin-2-ylamino)-N-(1-ethylpiperidin-4-yl)-3-methoxybenzamide]
The IC50 of the first is higher: 3.16 to 10 nM for the first, 1 to 2.51 nM for the second.

Compared with `COc1cc(C(=O)NN2CCN(C)CC2)ccc1Nc1ncc2c(n1)N(C1CCCC1)CC1(CC1)C(=O)N2C` [Compound 168, 4-(9′-cyclopentyl-5′-methyl-6′-oxo-5′,6′,8′,9′-tetrahydrospiro[cyclopropane-1,7′-pyrimido[4,5-b][1,4]diazepine]-2′-ylamino)-3-methoxy-N-(4-methylpiperazin-1-yl)benzamide], `CCCOc1cc(C(=O)NC2CCN(C)CC2)ccc1Nc1ncc2c(n1)N(C1CCCC1)CC(C)(C)C(=O)N2C` [Compound 124, 4-(9-cyclopentyl-5,7,7-trimethyl-6-oxo-6,7,8,9-tetrahydro-5H-pyrimido[4,5-b][1,4]diazepin-2-ylamino)-N-(1-methylpiperidin-4-yl)-3-propoxybenzamide] is higher in IC50: 1 to 2.51 nM for the first, over 10 nM for the second.

First: CNCCNC(=O)c1ccc(Nc2ncc3c(n2)N(C2CCCC2)CCC(=O)N3C)c(OC)c1 [Compound 59, 4-(9-cyclopentyl-5-methyl-6-oxo-6,7,8,9-tetrahydro-5H-pyrimido[4,5-b][1,4]diazepin-2-ylamino)-3-methoxy-N-(2-(methylamino)ethyl)benzamide]
Second: COc1cc(C(=O)NC2CC(C)(C)N(C)C(C)(C)C2)ccc1Nc1ncc2c(n1)N(C1CCCC1)CCC(=O)N2C [Compound 80, 4-(9-cyclopentyl-5-methyl-6-oxo-6,7,8,9-tetrahydro-5H-pyrimido[4,5-b][1,4]diazepin-2-ylamino)-3-methoxy-N-(1,2,2,6,6-pentamethylpiperidin-4-yl)benzamide]
The IC50 of the first is higher: over 10 nM for the first, 3.16 to 10 nM for the second.
